Measurements taken from patent US9901618B2, “Cell-permeable peptide system for treating diseases caused by glutamate excitotoxicity” (priority 2014, dated 2018).
“Also recorded” adds a separate entry of the source.

Experiments:
[1] = tested on: presynaptic NMDA receptors; test: Paired-pulse ratio of evoked EPSCs, patch-clamp in entorhinal cortex slices; assay type: cell-based, mouse; settings: D-AP5 50 μM perfusion, C57BL6/J slices
Experimental: The presynaptic NMDA receptors on the glutamatergic terminals are activated by the spontaneously-released glutamate and, by means of a positive feedback mechanism, determine a tonic liberation of glutamate. Electrophysiological recordings were made in order to investigate the functional role of JNK in the release of glutamate. For this reason, a parameter termed paired-pulse facilitation (PPF) was measured from pyramidal neurons of cerebral slices of entorhinal cortex (EC)-obtained from adult mice C57BL6/J incubated with or without the inhibitor of JNK, L-JNKi1 (2 μM for 30 min). Such paired-pulse facilitation (PPF) is a paradigm studied by means of the electrophysiological recording technique in patch-clamp configuration.

[2] = tested on: presynaptic NMDA receptors; test: mEPSC patch-clamp recording in cortex slices (NMDA-dependent presynaptic glutamate release); assay type: cell-based, mouse; settings: for effect on D-AP5 block of NMDA presynaptic receptor (mEPSC inter-events): peptide added separately at 10 μM, 30 min before recording
Syntaxin 1a = test: Western blot of STX1a (S14) phosphorylation in synaptosomes; assay type: cell-based, mouse
JNK = test: Western blot of JNK phosphorylation in cortical synaptosomes; settings: for phosphorylation of JNK (p-JNK/JNK) vs. control=100%: wild-type synaptosomes, stimulus alone (100 μM NMDA 10 min Mg2+-free; AMPA 10 min; KCl 90 s)
[3] = tested on: presynaptic release of glutamate; test: Glutamate ([3H]D-Asp) release from superfused cortical synaptosomes; assay type: cell-based, mouse; settings: for exocytotic release of [3H] D-Asp vs. control: C57/BL6 cortical synaptosomes, 8 mM KCl 90 s, 100 μM NMDA 10 min Mg2+-free, 50 μM (S)-AMPA 10 min
[4] = synaptosomes treated with D-AP5

NC(CCCP(=O)(O)O)C(=O)O [D-AP5]
paired-pulse ratio (PPR) at 50 ms interval [1]: irreversibly reduced
mEPSC amplitude [2]: neither the cumulative amplitude nor the mean of the same events were affected; also recorded: never affected
mEPSC inter-event intervals [2]: increase of the cumulative distribution of the inter-event intervals
mEPSC inter-event intervals and amplitude [2]: no significant changes
mEPSC inter-event intervals (IEI) ([2]; D-AP5, C57BL6/J slices, tetrodotoxin, picrotoxin, MK-801 in pipette): reversible increase
change in pSTX1a vs. Ctrl (100%) with D-AP5 (Syntaxin 1a; [4]): −10±7.2%
change in pJNK vs. Ctrl (100%) with D-AP5 (JNK; [4]): +10±8.9%

GRKKRRQRRRPPIEQSIEQEEGLNRS (SEQ ID NO: 5) (Muridae) [JGRi1]
effect on D-AP5 block of NMDA presynaptic receptor (mEPSC inter-events) [2]: reduced the functionality of the inhibitor D-AP5

CN[C@H](CC(=O)O)C(=O)O [NMDA, N-Methyl D-Aspartate]
exocytotic release of [3H] D-Asp vs. control [3]: 202±21%
NMDA-induced release of [3H] D-Asp with respect to the overflow basal ([3]; JNK2-KO mouse synaptosomes, NMDA 10 min): 28±19%
phosphorylation of STX1a (S14) after NMDA alone (Syntaxin 1a; NMDA 10 min): slight but non-significant decrease
NMDA-induced phosphorylation of JNK (JNK; JNK2-KO mouse synaptosomes): totally eliminated
NMDA-induced increase of pJNK vs. control=100% (JNK; JNK3-KO mouse synaptosomes): +76±10%

Cc1onc(O)c1C[C@H](N)C(=O)O [(S)-AMPA]
exocytotic release of [3H] D-Asp vs. control [3]: 98±11%
phosphorylation of JNK (p-JNK/JNK) vs. control=100% (JNK): unable to increase the phosphorylation of JNK

GRKKRRQRRRPPMSEYNATQSDYRER (SEQ ID NO: 8) (Muridae) [JGRi2]
effect on D-AP5 block of NMDA presynaptic receptor (mEPSC inter-events) [2]: reduced the functionality of the inhibitor D-AP5

[Cl-].[K+] [KCl]
exocytotic release of [3H] D-Asp vs. control [3]: 158±37%
phosphorylation of JNK (p-JNK/JNK) vs. control=100% (JNK): unable to increase the phosphorylation of JNK
